pIC50: −log10 of the molar value.

The text below walks through data of ChEMBL document CHEMBL3988442, “University of Dundee, Small-Polar-MMV Screening Library” (2021).

The target in this test is ClpP1P2 (Mycobacterium tuberculosis (strain ATCC 25618 / H37Rv), UniProt P9WPC3+P9WPC5). The experiment in a line: in vitro assay to detect presence of AMC directly proportional to the activity of ClpP1P2. GHDDI collaboration. It counts as functional.
Chain of ClpP1P2 (P9WPC5 whole entry): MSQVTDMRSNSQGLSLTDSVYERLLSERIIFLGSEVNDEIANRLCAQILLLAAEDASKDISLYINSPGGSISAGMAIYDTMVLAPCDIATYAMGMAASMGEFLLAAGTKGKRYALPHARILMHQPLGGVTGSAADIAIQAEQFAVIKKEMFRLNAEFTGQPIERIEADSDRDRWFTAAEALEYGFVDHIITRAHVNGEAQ
Chain of ClpP1P2 (P9WPC3 whole entry): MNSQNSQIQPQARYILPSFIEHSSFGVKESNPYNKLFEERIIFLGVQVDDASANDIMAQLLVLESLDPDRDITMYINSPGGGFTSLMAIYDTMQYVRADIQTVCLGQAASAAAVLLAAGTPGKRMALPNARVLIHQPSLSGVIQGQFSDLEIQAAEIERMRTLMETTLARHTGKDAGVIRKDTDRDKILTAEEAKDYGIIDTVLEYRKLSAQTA
On to `CS(=O)(=O)N1CCCCCC1C1CCN(c2ncccc2C#N)CC1` (stereo not given), for which the pIC50 was < 4.00. Under `N#Cc1cccnc1N1CCC(OCc2ccccc2)CC1` stands < 4.00; under `Cc1ccc(C#N)c(N2CCC3(CCC(=O)N(CC(N)=O)C3)CC2)n1`, < 4.00; under `CC(C)c1nc2c(n1C)CCN(CC(=O)Nc1cccnc1)C2`, < 4.00. Under `Cc1cnn(CC(C)Nc2cnc3ccccc3n2)c1` (stereo not given) stands < 4.00; under `c1coc(-c2noc(CN3CCc4cncnc4C3)n2)c1`, < 4.00; under `CCCn1nc2c(cc1=O)CN(CC(=O)N(C)c1nccs1)CC2`, < 4.00.

With `COc1cc2c(cc1CCC(=O)O)CCC2`, the pIC50 is < 4.00. With `CN(C)c1ncc(C2Nc3cc(Cl)ccc3C3=NCCCN32)cn1` (stereo not given), the pIC50 is < 4.00. The same measure for `CCN(CC)c1nc2sc(C(=O)N3CCNC(=O)C3)cc2s1`: < 4.00. Turning to `Cc1ccc(-c2nc(C3CCN(C(=O)c4cnn(C)c4)CC3)no2)cn1`, the pIC50 was < 4.00. Under `CN(C)C1CCN(c2cc(-c3ccccc3)nc3ccnn23)C1` (stereo not given) stands < 4.00; under `CC(C)n1c2ccccc2c2c1cc(C(=O)N(C)C)n2C(=O)N(C)C`, < 4.00; under `Cn1ccc(-c2cc(C(=O)N3CCCCC3)c3ccccn23)n1`, < 4.00.

For `O=C1C(Nc2ccc3nccnc3n2)CCN1c1ccccc1F` (stereo not given), the pIC50 is < 4.00.

As to `CCN(Cc1nc2c(cnn2C)c(=O)[nH]1)Cc1cccs1`, the pIC50 was < 4.00. `CCOc1ccccc1CC(=O)N1C[C@@H](C(=O)O)[C@H](c2ccncc2)C1`: the pIC50 was < 4.00.

`O=C(c1cc(-c2ccco2)nc2c(Cl)cccc12)N1CCS(=O)(=O)CC1`: the pIC50 is < 4.00. Under `CC1CCN(C(=O)c2cnn3c(-c4ccco4)ccnc23)CC1` stands < 4.00.

Regarding `CN(C)C(=O)c1nc(-c2ccc(S(C)(=O)=O)cc2)c2ccccn12`, the pIC50 is < 4.00.

Take `CN1C(=O)c2cccc(NC(=O)c3ccc4c(c3)OCCO4)c2C1=O`: the pIC50 is < 4.00. The same measure for `N#Cc1cccnc1N1CCC(C2CCCCCN2C(=O)C2CC2)CC1` (stereo not given): < 4.00; for `Cc1nc(N2CCCC2C(=O)NCc2ccsc2)nc2ccccc12` (stereo not given): < 4.00; for `c1cncc(CN2CCC(c3ccc4c(c3)OCO4)CC2)c1`: < 4.00.

Consider `CCN1CCCC1CNCc1cc2cc(OC)ccc2[nH]c1=O` (stereo not given), for which the pIC50 is < 4.00. Under `O=C(c1c2c(NCC3CC3)ncnc2n2ccccc12)N1CCCC1` stands < 4.00; under `COc1ccc2c(c1)C(=O)N(C)C1(CCN(C(=O)OC(C)(C)C)CC1)N2`, < 4.00; under `CCN(CC1CCOC1)C(=O)Nc1ccc(OC)nc1` (stereo not given), < 4.00. The same measure for `CC(C)c1nnc2n1CCN(C(=O)Cc1csc(C(C)(C)C)n1)C2`: < 4.00. In the case of `CC(C)c1nc(CN(C)C2CCN(CCc3ccncc3)C2)no1` (stereo not given), the pIC50 is < 4.00. Under `Cc1cnn(CC2CN(Cc3nc4ccccc4c(=O)[nH]3)CCO2)c1` (stereo not given) stands < 4.00. Under `N#Cc1cc2c(=O)n(CC(O)Cc3ccccc3)ccc2[nH]c1=O` (stereo not given) stands < 4.00; under `CC(Cn1cccn1)NC(=O)N1CCN(Cc2ccsc2)CC1` (stereo not given), < 4.00.

As to `CC(C)c1nc2oc(C(=O)N3CCOCC3)c(N)c2c2c1CCCC2`, the negative-log IC50 (pIC50) was < 4.00. The same measure for `CN(Cc1ccccc1C#N)C1CCN(CCc2ccccn2)CC1`: < 4.00; for `Cc1ccc(C(=O)NC2CCN(C(=O)NCc3ccccn3)CC2)o1`: < 4.00. The same measure for `COCCN1CC(C(=O)NCc2cccnc2-n2cccn2)CC1=O` (stereo not given): < 4.00. On to `CC(c1ccccn1)N(C)Cc1cc2cc3c(cc2[nH]c1=O)OCO3` (stereo not given), for which the pIC50 was < 4.00. Under `Cc1nc(N2CCCC2)ccc1NCc1ccccn1` stands < 4.00; under `CC(=O)N1CCC(c2cnc(NC3CCOCC3)cn2)CC1`, < 4.00; under `Cn1cnc2ccc(NC(=O)CC3CCN(S(C)(=O)=O)CC3)cc21`, < 4.00. The same measure for `CNc1cnc(CC2COCCN(Cc3cccc(C)n3)C2)cn1` (stereo not given): < 4.00; for `CC(=O)N(Cc1ncc(C)o1)C1CCN(Cc2cc(C)on2)C1` (stereo not given): < 4.00.

Consider `CC(C)(C)OC(=O)NCCNC(=O)c1ccc(-c2ccco2)[nH]c1=O`, for which the pIC50 was < 4.00. The same measure for `CCNC(=O)c1c2c(N3CCN(C)CC3)ncnc2n2ccccc12`: < 4.00; for `O=C(c1cc(-c2cccnc2)[nH]n1)N1CCCC(c2cnccn2)C1` (stereo not given): < 4.00; for `CCOc1ccc2[nH]c(=O)c(CN3CCN(S(N)(=O)=O)CC3)cc2c1`: < 4.00. Under `c1ccc(O[C@H]2C[C@@H]3CN(Cc4cnccn4)C[C@@H]3C2)cc1` stands < 4.00; under `COc1ccc2cc(CN(C)CCN3CCCCC3=O)c(=O)[nH]c2c1`, < 4.00; under `CC1CN(C(=O)CN(Cc2ccco2)Cc2cccs2)CCO1` (stereo not given), < 4.00. Under `CNc1cnc(CC2COCCN(CCOc3ccccc3)C2)cn1` (stereo not given) stands < 4.00; under `N#Cc1ccnc(N2CCC(c3nccn3Cc3cscn3)CC2)c1`, < 4.00; under `Cc1ccc(CN2CCC3(C2)C(=O)N(CC2CC2)c2ccccc23)s1` (stereo not given), < 4.00. Take `CNC(=O)c1cc2c(nc1NCC(C)C)CCN(S(=O)(=O)N(C)C)CC2`: the pIC50 is < 4.00. Under `CN(Cc1nnc(-c2ccco2)o1)C1CCCN(c2cccnn2)C1` (stereo not given) stands < 4.00; under `CCC(=O)N1CCCN(c2cncc(-n3nc(C)cc3C)n2)CC1`, < 4.00; under `Cn1cnc(-c2nc(C(=O)NCCN3CCCC3)c3ccccn23)c1`, < 4.00. Under `COc1ccc2[nH]c(=O)c(CN(C)CCN3CCCC3)cc2c1` stands < 4.00.

Regarding `OCCNc1nc(NCCc2ccccc2)nc2nccnc12`, the pIC50 is < 4.00.

On to `Cc1ncc(CN2CCc3nc4cc(C(C)(C)C)nn4c(O)c3C2)n1C`, for which the pIC50 is < 4.00. In the case of `O=C(c1nc(=O)[nH]c2ccccc12)N1CCCC2(CCNC2)C1` (stereo not given), the pIC50 is < 4.00. The same measure for `CC(C)c1ncc2c(n1)CN(CC(=O)Nc1ccc(Cl)cn1)CC2`: < 4.00; for `CC1CCC(NC(=O)CNC2(c3ccc(Br)cc3)CCOCC2)CC1` (stereo not given): < 4.00. Under `Cc1nn(C)c(C)c1C1CCCN1C(=O)c1ccnc(N(C)C)c1` (stereo not given) stands < 4.00; under `CC(C)n1cnc(-c2nc(C(=O)N3CCCC3)c3ccccn23)c1`, < 4.00; under `Cn1cnc2c1CCN(Cc1csc(-c3ccsc3)n1)C2`, < 4.00. The same measure for `Cc1cc(C)n(CC2CN(c3cnc4ccccc4n3)CCO2)n1` (stereo not given): < 4.00; for `Cc1ccc(CN2C[C@@H]3[C@@H](C(=O)N4CCCC4)CCS(=O)(=O)[C@@H]3C2)cc1`: < 4.00. Regarding `CC1CCN(C(=O)C2CCN(c3ccc(Cl)cc3C#N)CC2)CC1`, the pIC50 is < 4.00.

Regarding `Cc1ccccc1-c1noc(CN2CCc3cncnc3C2)n1`, the pIC50 was < 4.00. The same measure for `CCCn1[nH]cc/c1=N\C(=O)CN1CCc2cnc(C(C)C)nc2C1`: < 4.00. Regarding `CCN(CC)S(=O)(=O)c1cc2c3c(c1)c(C)cc(=O)n3CC2`, the negative-log IC50 (pIC50) is < 4.00. The same measure for `COc1cc2ccccc2cc1C(=O)N1CCCC(c2nncn2C)C1` (stereo not given): < 4.00; for `O=C(NCC(F)(F)F)c1ccc(-c2ccco2)[nH]c1=O`: < 4.00. The same measure for `CC(C)c1ncc(-c2cc(C3CCC3)nc(N)c2C#N)cn1`: < 4.00.

In general, pIC50 refers to the IC50 on a negative log10 scale, so that one unit is a factor of ten.
